Consider 10 compounds from patent US20060194756A1 (priority 2004, published 2006).

Read-outs that look alike come from different tables or passages of the source.

The conditions of experiment [1]: intact anesthetized rabbits studied in situ; cited from earlier work.
Experiment [2] deals with HIF-1α protein expression in A375 melanoma cells. Briefly: HIF-1α protein accumulation in A375 cells (immunoblot, densitometry). The experiment is classed as cell-based, human. Particulars: for abrogation of the effect of Cl-IB-MECA in HIF-1α modulation: antagonist 10 and 100 nM, Cl-IB-MECA 10 and 100 nM; for prevention of adenosine-induced HIF-1α protein expression: adenosine 100 μM, antagonist 100 nM, hypoxia 4 hours; for inhibition of Cl-IB-MECA-induced increase of HIF-1α protein expression: U0126 10 and 30 μM, SB202190 1 and 10 μM. As for the experimental part:
(§1) Cell culture and hypoxia treatment: Cells were maintained in DMEM (A375), EMEM (NCTC 2544) or RPMI 1640 (U87MG, U2OS) medium containing 10% fetal calf serum, penicillin (100 U/ml), streptomycin (100 ug/ml), and L-glutamine (2 mM) at 37° C. in 5% CO2/95% air. Cells were passaged two or three times weekly at a ratio between 1:5 and 1:10. Hypoxic exposure was in BBL™ GasPak pouch™ System (Becton Dickinson) that reduce oxygen concentration of less than 2% within 2 hours of incubation at 35° C.
Cells were harvested and washed with ice-cold PBS containing 1 mM sodium orthovanadate, AEBSF 104 mM, aprotinin 0.08 mM, leupeptin 2 mM, bestatin 4 mM, pepstatin A 1.5 mM, E-64 1.4 mM. Cells were then lysed in Triton lysis buffer. The protein concentration was determined using BCA protein assay kit (Pierce). […] The gel was then electroblotted onto a nitrocellulose membrane. Membranes were blocked with 5% nonfat dry milk in PBS containing 0.1% Tween-20 and incubated with antibodies against HIF-1α (1:250 dilution) and HIF-1β (1:1000 dilution) in 5% nonfat dry milk in PBS/0.1% Tween-20 overnight at 4° C. Aliquots of total protein sample (50 μg) were analyzed using antibodies specific for phosphorylated (Thr183/Tyr185) or total p44/p42 MAPK (1:5000 dilution), phosphorylated (Thr180/Tyr182) or total p38 MAPK (1:1000 dilution) and for A3 receptor (1 μg/ml dilution). Filters were washed and incubated for 1 hour at room temperature with peroxidase-conjugated secondary antibodies against mouse and rabbit IgG (1:2000 dilution). […] The membranes were then stripped and reprobed with tubulin (1:250) to ensure equal protein loading.
U0126 was used at 10 and 30 uM as inhibitor of MEK-1 and MEK-2 to prevent p44 and p42 MAPK activation. SB202190 was used at 1 and 10 μM as inhibitor of p38 MAPK.
(§2) Densitometry analysis: The intensity of each band in immunoblot assay was quantified using molecular analyst/PC densitometry software (Bio-Rad). […] The data were presented as the mean±S.E., and analyzed by the Student's test.

In experiment [3] the test system is HIF-1β protein expression in A375 melanoma cells. Briefly: HIF-1β protein expression in A375 cells (immunoblot). In kind it is cell-based, human. The settings on record: hypoxia (Cl-IB-MECA: normoxia and hypoxia). As for the experimental part:
as §1
Cells were harvested and washed with ice-cold PBS containing 1 mM sodium orthovanadate, AEBSF 104 mM, aprotinin 0.08 mM, leupeptin 2 mM, bestatin 4 mM, pepstatin A 1.5 mM, E-64 1.4 mM. Cells were then lysed in Triton lysis buffer. The protein concentration was determined using BCA protein assay kit (Pierce). Equivalent amounts of protein (35 ug) were subjected to electrophoresis on 7.5% sodium dodecyl sulfate-acrylamide gel. The gel was then electroblotted onto a nitrocellulose membrane. Membranes were blocked with 5% nonfat dry milk in PBS containing 0.1% Tween-20 and incubated with antibodies against HIF-1α (1:250 dilution) and HIF-1β (1:1000 dilution) in 5% nonfat dry milk in PBS/0.1% Tween-20 overnight at 4° C. Aliquots of total protein sample (50 μg) were analyzed using antibodies specific for phosphorylated (Thr183/Tyr185) or total p44/p42 MAPK (1:5000 dilution), phosphorylated (Thr180/Tyr182) or total p38 MAPK (1:1000 dilution) and for A3 receptor (1 μg/ml dilution). Filters were washed and incubated for 1 hour at room temperature with peroxidase-conjugated secondary antibodies against mouse and rabbit IgG (1:2000 dilution). […] The membranes were then stripped and reprobed with tubulin (1:250) to ensure equal protein loading.

Experiment [4] has as its system HIF-1α protein expression in NCTC 2544 keratinocytes. Briefly: HIF-1α protein expression in NCTC 2544 keratinocytes under hypoxia. In kind it is cell-based, human. The settings on record: NCTC 2544, Cl-IB-MECA 100 nM, 4 hours of hypoxia. As for the experimental part:
as §1
(§3) Cells were harvested and washed with ice-cold PBS containing 1 mM sodium orthovanadate, AEBSF 104 mM, aprotinin 0.08 mM, leupeptin 2 mM, bestatin 4 mM, pepstatin A 1.5 mM, E-64 1.4 mM. Cells were then lysed in Triton lysis buffer. The protein concentration was determined using BCA protein assay kit (Pierce). Equivalent amounts of protein (35 ug) were subjected to electrophoresis on 7.5% sodium dodecyl sulfate-acrylamide gel. The gel was then electroblotted onto a nitrocellulose membrane. […] Aliquots of total protein sample (50 μg) were analyzed using antibodies specific for phosphorylated (Thr183/Tyr185) or total p44/p42 MAPK (1:5000 dilution), phosphorylated (Thr180/Tyr182) or total p38 MAPK (1:1000 dilution) and for A3 receptor (1 μg/ml dilution). […]

Experiment [5] deals with HIF-1α protein expression in U87MG glioblastoma cells. Nature of the experiment: HIF-1α protein expression in U87MG glioblastoma cells under hypoxia. The experiment is classed as cell-based, human. Particulars: Cl-IB-MECA 100 nM, 4 hours of hypoxia. As for the experimental part:
as §1, §3

Experiment [6] relates to HIF-1α protein expression in U2OS osteosarcoma cells. Nature of the experiment: HIF-1α protein expression in U2OS osteosarcoma cells under hypoxia. In kind it is cell-based, human. The settings on record: Cl-IB-MECA 100 nM, 4 hours of hypoxia. As for the experimental part: as §1, §3
In experiment [7] the test system is p44/p42 MAPK phosphorylation in A375 cells. Nature of the experiment: p44/p42 MAPK phosphorylation in hypoxic A375 cells (immunoblot). In kind it is cell-based, human. The settings on record: 4 hours in hypoxia. As for the experimental part:
(§4) Cells were harvested and washed with ice-cold PBS containing 1 mM sodium orthovanadate, AEBSF 104 mM, aprotinin 0.08 mM, leupeptin 2 mM, bestatin 4 mM, pepstatin A 1.5 mM, E-64 1.4 mM. Cells were then lysed in Triton lysis buffer. The protein concentration was determined using BCA protein assay kit (Pierce). Equivalent amounts of protein (35 ug) were subjected to electrophoresis on 7.5% sodium dodecyl sulfate-acrylamide gel. The gel was then electroblotted onto a nitrocellulose membrane. Membranes were blocked with 5% nonfat dry milk in PBS containing 0.1% Tween-20 and incubated with antibodies against HIF-1α (1:250 dilution) and HIF-1β (1:1000 dilution) in 5% nonfat dry milk in PBS/0.1% Tween-20 overnight at 4° C. Aliquots of total protein sample (50 μg) were analyzed using antibodies specific for phosphorylated (Thr183/Tyr185) or total p44/p42 MAPK (1:5000 dilution), phosphorylated (Thr180/Tyr182) or total p38 MAPK (1:1000 dilution) and for A3 receptor (1 μg/ml dilution). Filters were washed and incubated for 1 hour at room temperature with peroxidase-conjugated secondary antibodies against mouse and rabbit IgG (1:2000 dilution). […]
as §2

Experiment [8] relates to p38 MAPK phosphorylation in A375 cells. Nature of the experiment: p38 MAPK phosphorylation in hypoxic A375 cells (immunoblot). The experiment is classed as cell-based, human. The settings on record: 4 hours in hypoxia, various concentrations. As for the experimental part: as §4, §2
Experiment [9] deals with HIF-1α protein degradation in A375 cells. Nature of the experiment: HIF-1α degradation after return of hypoxic A375 cells to normoxia. In kind it is cell-based, human. The settings on record: Cl-IB-MECA 100 nM, 4 hours hypoxia then normoxia 0-15 minutes. As for the experimental part: as §4, §2
The conditions of experiment [10]: rat 4 vessel occlusion model; cited from earlier work.
The conditions of experiment [11]: transient middle cerebral artery occlusion focal ischemia; cited from earlier work.
[12] abbreviates: Cl-IB-MECA 100 nM, 4 hours in hypoxia.

On to `C[C@H](Cc1ccccc1)Nc1ncnc2c1ncn2[C@@H]1O[C@H](CO)[C@@H](O)[C@H]1O` [PIA, N^6-1-(phenyl-2R-isopropyl) adenosine], for which the cardioprotection result in [1] is reported as “pharmacologically induce cardioprotection”.

Take `Cn1cc2c(nc(NC(=O)Nc3ccncc3)n3nc(-c4ccco4)nc23)n1` [MRE 3005F20]: the “abrogation of the effect of Cl-IB-MECA in HIF-1α modulation” value in experiment [2] (hypoxia) is “able to abrogate”. The “modulation of HIF-1β protein expression” value in [3] is on record as “neither MRE 3008F20 nor MRE 3005F20 had any effect”.

`Nc1nc2c(cnn2CCc2ccccc2)c2nc(-c3ccco3)nn12` [SCH 58261, 5-amino-7-(2-phenylethyl)-2-(2-furyl)-pyrazolo[4,3-e]-1,2,4-triazolo[1,5-c]pyrimidine]: the “prevention of adenosine-induced HIF-1α protein expression” value (“prevention” below) in experiment [2] is “not able to prevent”.

Turning to `CNC(=O)[C@H]1O[C@@H](n2cnc3c(NCc4cccc(I)c4)nc(Cl)nc32)[C@H](O)[C@@H]1O` [Cl-IB-MECA], the “HIF-1α protein levels in CoCl2-treated cells” value in experiment [2] (100 μM CoCl2, normoxia, 4 hours) is listed as “able to increase the levels of HIF-1α protein”. The “HIF-1α levels in cells exposed to cycloheximide” value in [2] (100 μM CoCl2, normoxia, Cl-IB-MECA 100 nM, CHX 1 μM, within 6 hours) was “failed to increase”. In addition, the “HIF-1α protein expression in the presence of actinomycin D” value in experiment [2] (Act-D 10 μg/ml, Cl-IB-MECA 100 nM, 4 hours in hypoxia) is reported as “able to increase HIF-1α protein expression also in the presence of Act-D”. Also, the “concentration inducing maximum expression of HIF-1α protein” value in [2] (hypoxia, 4 hours) came out at 100 nM. For the same compound, the “time of maximum peak HIF-1α levels after addition” value in experiment [2] (hypoxia, Cl-IB-MECA 100 nM) is 4 h. In experiment [2] (hypoxia, Cl-IB-MECA 100 nM, 2-24 hours), the “HIF-1α protein expression under hypoxic conditions, time course” value was “increased in a time-dependent manner”. Also, in experiment [2] (normoxia, Cl-IB-MECA 100 nM), the “HIF-1α protein accumulation in normoxia” value is listed as “did not promote HIF-1α protein accumulation”. Also, the “modulation of HIF-1β protein expression” value in experiment [3] is reported as “did not modify”. Moreover, the HIF-1α protein expression result in [4], in experiment [5] and in experiment [6] was “significant increase” each time. Also, in [7], the “concentration giving maximum induction of p44/p42 phosphorylation” value turned out to be 100 nM. For the same compound, in [7] (nanomolar concentrations), the “phosphorylation of p44 and p42” value was “induced”. Further, the “phosphorylation of p38 MAPK” value in experiment [8] was “increased the phosphorylation of p38 MAPK in a dose-dependent manner”. For the same compound, the “HIF-1α degradation rate after removal of hypoxic conditions” value in experiment [9] is “unchanged degradation rate”.

For `Nc1ncnc2c1ncn2[C@@H]1O[C@H](CO)[C@@H](O)[C@H]1O` [adenosine], the “modulation of HIF-1β protein expression” value in [3] is given as “did not observe any modulation”.

Consider `Oc1ccc(-c2nc(-c3ccncc3)c(-c3ccc(F)cc3)[nH]2)cc1` [SB202190], for which, in experiment [2] (setting [12]), the “inhibition of Cl-IB-MECA-induced increase of HIF-1α protein expression” value is recorded as “able to inhibit”.

`CCCn1cc2c(nc(NC(=O)Nc3ccc(OC)cc3)n3nc(-c4ccco4)nc23)n1` [MRE 3008F20]: the “prevention” value in experiment [2] was “abrogated”. Moreover, the “abrogation of the effect of Cl-IB-MECA in HIF-1α modulation” value in experiment [2] (hypoxia) is “able to abrogate”. Besides, the IC50 in [2] (read-out: IC50 for inhibition of HIF-1α protein increase induced by 10 nM Cl-IB-MECA, hypoxia 4 hours, MRE 3008F20 0.3-30 nM) was 0.9 ± 0.08 nM. Further, the “modulation of HIF-1β protein expression” value in experiment [3] is listed as “neither MRE 3008F20 nor MRE 3005F20 had any effect”.

As for `N#CC(=C(/N)Sc1ccccc1N)/C(C#N)=C(\N)Sc1ccccc1N` [U0126], the “inhibition of Cl-IB-MECA-induced increase of HIF-1α protein expression” value in experiment [2] (setting [12]) was “able to inhibit”.

Turning to `CCCn1c(=O)c2[nH]c(-c3cc(OCC(=O)Nc4ccc5c(c4)OCO5)nn3C)nc2n(CCC)c1=O` [MRE 2029F20], the “prevention” value in experiment [2] was “not able to prevent”.

Regarding `CSCC[C@@H]1NC(=O)[C@H](CC(C)C)NC(=O)[C@H](CCCNC(=N)N)NC(=O)[C@H](CO)NC(=O)[C@@H]2CSSC[C@@H]3NC(=O)[C@H](CO)NC(=O)CNC(=O)[C@H]([C@@H](C)O)NC(=O)[C@H](CSSC[C@H](N)C(=O)N[C@@H](CCCCN)C(=O)NCC(=O)N[C@@H](CCCCN)C(=O)NCC(=O)N[C@@H](C)C(=O)N[C@@H](CCCCN)C(=O)N2)NC(=O)[C@H](CSSC[C@@H](C(N)=O)NC(=O)[C@H](CCCCN)NC(=O)CNC(=O)[C@H](CO)NC(=O)[C@H](CCCNC(=N)N)NC3=O)NC(=O)[C@H](CC(=O)O)NC(=O)[C@H](Cc2ccc(O)cc2)NC1=O` [SNX-111], the neuroprotection result in [10] and in [11] was “neuroprotective” each time.
